Data from patent US11572590B2, “Methods for evaluating tumor cell spheroids using 3D microfluidic cell culture device” (Dana-Farber Cancer Institute, Inc., priority 2017, dated 2023).
Where two headings read alike, the source gives them in different places.

Legend:
Assay in all cases: SelectScreen Kinase Profiling, single point inhibition and IC50 for off-target kinases
Format in all cases: biochemical
[1] = biological target: T1, off-target kinases (Homo sapiens, UniProt Q8NE63); settings: HIPK4, ZLYTE, ATP Km app
T1 sequence (Q8NE63 1-616): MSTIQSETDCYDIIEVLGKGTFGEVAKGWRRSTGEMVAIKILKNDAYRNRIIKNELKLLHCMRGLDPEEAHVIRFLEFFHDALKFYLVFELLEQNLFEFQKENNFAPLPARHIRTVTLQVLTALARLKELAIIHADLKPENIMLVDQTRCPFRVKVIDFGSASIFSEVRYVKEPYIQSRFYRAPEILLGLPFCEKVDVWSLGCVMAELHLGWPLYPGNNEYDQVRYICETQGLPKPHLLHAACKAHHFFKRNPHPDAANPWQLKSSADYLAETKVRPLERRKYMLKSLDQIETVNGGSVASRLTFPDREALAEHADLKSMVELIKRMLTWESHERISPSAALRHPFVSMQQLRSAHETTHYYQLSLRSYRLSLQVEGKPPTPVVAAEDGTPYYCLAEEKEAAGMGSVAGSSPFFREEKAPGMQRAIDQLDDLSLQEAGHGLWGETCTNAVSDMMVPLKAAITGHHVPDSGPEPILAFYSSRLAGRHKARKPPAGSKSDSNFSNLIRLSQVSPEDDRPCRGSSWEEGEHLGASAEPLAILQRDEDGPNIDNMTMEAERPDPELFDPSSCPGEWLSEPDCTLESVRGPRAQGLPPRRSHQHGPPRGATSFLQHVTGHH

[2] = biological target: T2, off-target kinases (Homo sapiens, UniProt Q13873); settings: BMPR2, LanthaScreen Binding
T2 sequence (Q13873 27-1038): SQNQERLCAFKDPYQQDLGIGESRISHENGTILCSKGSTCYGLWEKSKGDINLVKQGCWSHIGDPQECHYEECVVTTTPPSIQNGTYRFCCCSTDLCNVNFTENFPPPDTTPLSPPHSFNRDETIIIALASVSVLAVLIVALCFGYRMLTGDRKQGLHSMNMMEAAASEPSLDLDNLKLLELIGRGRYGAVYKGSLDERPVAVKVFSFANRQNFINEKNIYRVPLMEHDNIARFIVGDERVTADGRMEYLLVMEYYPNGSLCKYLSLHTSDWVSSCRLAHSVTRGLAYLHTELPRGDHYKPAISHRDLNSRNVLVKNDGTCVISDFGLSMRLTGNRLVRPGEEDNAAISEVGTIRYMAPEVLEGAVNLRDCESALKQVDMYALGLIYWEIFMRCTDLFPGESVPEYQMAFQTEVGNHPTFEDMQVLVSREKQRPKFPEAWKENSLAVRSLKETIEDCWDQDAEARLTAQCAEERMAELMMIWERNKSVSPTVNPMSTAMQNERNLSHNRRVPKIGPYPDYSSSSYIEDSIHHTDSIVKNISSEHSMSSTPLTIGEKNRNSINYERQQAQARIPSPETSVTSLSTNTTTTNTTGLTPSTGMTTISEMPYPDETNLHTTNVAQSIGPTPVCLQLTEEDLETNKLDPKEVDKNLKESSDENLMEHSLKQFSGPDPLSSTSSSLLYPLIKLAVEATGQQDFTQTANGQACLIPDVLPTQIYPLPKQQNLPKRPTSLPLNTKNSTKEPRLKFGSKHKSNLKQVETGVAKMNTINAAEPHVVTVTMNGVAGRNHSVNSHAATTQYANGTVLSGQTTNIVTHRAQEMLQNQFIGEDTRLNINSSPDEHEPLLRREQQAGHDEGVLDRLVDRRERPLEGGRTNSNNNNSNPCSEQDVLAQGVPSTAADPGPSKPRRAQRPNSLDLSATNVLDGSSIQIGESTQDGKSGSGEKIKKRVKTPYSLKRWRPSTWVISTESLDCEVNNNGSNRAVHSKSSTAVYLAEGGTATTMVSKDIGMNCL

[3] = biological target: off-target kinases (Homo sapiens, UniProt P08631); settings: HCK, ZLYTE, ATP Km app
Sequence of off-target kinases (Homo sapiens, UniProt P08631) (P08631 whole entry): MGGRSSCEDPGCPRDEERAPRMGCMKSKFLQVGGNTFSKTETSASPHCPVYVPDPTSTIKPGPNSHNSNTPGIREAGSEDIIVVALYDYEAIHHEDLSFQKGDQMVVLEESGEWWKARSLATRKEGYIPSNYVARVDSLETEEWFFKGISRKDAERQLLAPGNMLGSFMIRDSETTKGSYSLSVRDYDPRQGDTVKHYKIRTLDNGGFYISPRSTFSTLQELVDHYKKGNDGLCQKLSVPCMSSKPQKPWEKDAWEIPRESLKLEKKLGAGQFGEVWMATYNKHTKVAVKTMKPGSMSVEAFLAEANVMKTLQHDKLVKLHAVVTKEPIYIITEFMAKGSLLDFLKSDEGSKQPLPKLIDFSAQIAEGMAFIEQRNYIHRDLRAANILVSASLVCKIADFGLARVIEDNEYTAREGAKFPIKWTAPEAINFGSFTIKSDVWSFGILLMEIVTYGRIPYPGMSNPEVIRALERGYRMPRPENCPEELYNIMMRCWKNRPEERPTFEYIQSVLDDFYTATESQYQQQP

[4] = biological target: off-target kinases (Homo sapiens, UniProt Q02763, Y1108F); settings: TEK (TIE2) Y1108F, LanthaScreen Binding
Sequence of off-target kinases (Homo sapiens, UniProt Q02763, Y1108F) (Q02763 23-1124 Y1108F): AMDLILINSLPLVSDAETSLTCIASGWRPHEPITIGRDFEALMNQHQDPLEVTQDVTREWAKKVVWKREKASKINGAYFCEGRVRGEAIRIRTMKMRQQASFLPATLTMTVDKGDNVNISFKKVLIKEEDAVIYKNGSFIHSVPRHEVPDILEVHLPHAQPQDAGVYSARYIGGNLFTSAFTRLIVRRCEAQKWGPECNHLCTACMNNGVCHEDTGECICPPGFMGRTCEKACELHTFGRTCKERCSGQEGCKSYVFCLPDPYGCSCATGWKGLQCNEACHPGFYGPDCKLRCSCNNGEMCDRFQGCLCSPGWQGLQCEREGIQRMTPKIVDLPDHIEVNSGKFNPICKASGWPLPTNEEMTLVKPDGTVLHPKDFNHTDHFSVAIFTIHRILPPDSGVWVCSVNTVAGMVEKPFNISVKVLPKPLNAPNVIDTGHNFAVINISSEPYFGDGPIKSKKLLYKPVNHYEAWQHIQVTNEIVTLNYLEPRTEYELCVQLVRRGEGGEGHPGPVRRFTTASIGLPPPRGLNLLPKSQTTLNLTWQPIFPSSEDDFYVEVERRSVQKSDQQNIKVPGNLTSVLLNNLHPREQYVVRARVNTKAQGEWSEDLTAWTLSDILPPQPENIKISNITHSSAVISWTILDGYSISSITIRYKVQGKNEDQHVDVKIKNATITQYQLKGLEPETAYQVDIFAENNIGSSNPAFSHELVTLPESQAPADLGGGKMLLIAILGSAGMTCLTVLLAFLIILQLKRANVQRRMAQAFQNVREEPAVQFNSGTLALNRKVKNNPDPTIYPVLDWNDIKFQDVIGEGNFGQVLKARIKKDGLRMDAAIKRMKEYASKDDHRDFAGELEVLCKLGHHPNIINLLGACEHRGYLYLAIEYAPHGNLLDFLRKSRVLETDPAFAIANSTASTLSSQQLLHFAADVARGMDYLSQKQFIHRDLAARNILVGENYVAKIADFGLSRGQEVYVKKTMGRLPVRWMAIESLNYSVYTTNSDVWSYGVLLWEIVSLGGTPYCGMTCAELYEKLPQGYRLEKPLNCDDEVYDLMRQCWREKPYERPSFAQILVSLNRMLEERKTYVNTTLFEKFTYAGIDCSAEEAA

N#Cc1cc(-c2ncnc(Nc3ccc(N4CCN(C5COC5)CC4)cc3)n2)ccc1OC1CCOCC1 [Compound 1, 5-(4-((4-(4-(oxetan-3-yl)piperazin-1-yl)phenyl)amino)-1,3,5-triazin-2-yl)-2-((tetrahydro-2H-pyran-4-yl)oxy)benzonitrile]
inhibition ([1]; read-out: % Inhibition 1): 18% | inhibition ([1]; read-out: % Inhibition 2): 14% | inhibition ([1]; read-out: % Inhibition Avg): 16% | inhibition ([2]; read-out: % Inhibition 1): 50% | inhibition ([2]; read-out: % Inhibition 2): 47% | inhibition ([2]; read-out: % Inhibition Avg): 49% | inhibition ([3]; read-out: % Inhibition 1): 26% | inhibition ([3]; read-out: % Inhibition 2): 28% | inhibition ([3]; read-out: % Inhibition Avg): 27% | inhibition ([4]; read-out: % Inhibition 1): 53% | inhibition ([4]; read-out: % Inhibition 2): 52% | inhibition ([4]; read-out: % Inhibition Avg): 53%
